Laboratory results taken from article PMC3199943, “Screening the MayBridge Rule of 3 Fragment Library for Compounds That Interact with the Trypanosoma brucei myo-Inositol-3-Phosphate Synthase and/or Show Trypanocidal Activity” (Molecular Biology International, 2011).
Structures can show the parent of a compound that is named as a salt. Where two headings read alike, the source gives them in different places.

Legend:
HeLa cells = assay: cells; conditions: for viability at 500 µM: Homo sapiens, HeLa, 65 h; for HeLa Cells Alamar Blue: Supplementary Table 1
Outline: (§1)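 Alamar Blue read-out after a 5 h dye incubation that followed ~65 h compound exposure. Cells: HeLa or A549, 2 × 10^4/well, DMEM + 10% FCS + 2 mM L-Glutamine.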

TbINO1 = target: T1, TbINO1 (Trypanosoma brucei brucei, UniProt Q5QQ46); assay: biochemical; assay type: binding
T1 sequence (Q5QQ46 1-528): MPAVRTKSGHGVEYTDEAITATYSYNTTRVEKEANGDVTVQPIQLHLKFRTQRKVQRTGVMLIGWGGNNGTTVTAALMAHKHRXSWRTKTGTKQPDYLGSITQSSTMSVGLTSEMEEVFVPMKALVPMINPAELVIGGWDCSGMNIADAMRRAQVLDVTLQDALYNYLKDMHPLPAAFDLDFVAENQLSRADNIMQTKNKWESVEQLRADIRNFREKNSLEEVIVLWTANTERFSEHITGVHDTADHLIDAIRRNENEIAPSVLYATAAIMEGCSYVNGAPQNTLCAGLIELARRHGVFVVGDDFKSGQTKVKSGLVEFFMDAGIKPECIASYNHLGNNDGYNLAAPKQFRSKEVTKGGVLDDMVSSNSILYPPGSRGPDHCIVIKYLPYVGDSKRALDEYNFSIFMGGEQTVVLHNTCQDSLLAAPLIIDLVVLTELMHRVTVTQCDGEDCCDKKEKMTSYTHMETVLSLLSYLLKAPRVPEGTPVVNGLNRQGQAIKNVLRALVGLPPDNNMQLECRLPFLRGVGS

A549 cells = assay: Cytotoxicity against A549 cells, Alamar Blue; assay type: cell-based; conditions: Supplementary Table 1, compound 0.5 mM, percentage of controls (n=1); for viability at 500 µM: Homo sapiens, A549, 65 h
Outline: as §1

[1] = read-out: HeLa Cells Alamar Blue
[2] = read-out: Tb Ino1 Tm Shift [˚C]
[3] = compound 0.5 mM, percentage of controls, mean ± SD (n=3) or SE (n=2)
[4] = Supplementary Table 1, compound 1mM, mean ± SD from Boltzman curve fitting

SMILES	ΔTm at 1000 µM (TbINO1; [2]) [°C]	viability at 500 µM (HeLa cells; [1]) [%]	viability at 500 µM (A549 cells) [%]	further results
NCc1nc2ccccc2s1 [compound 626, 1,3-benzothiazol-2-ylmethylamine hydrochloride]			85.7	viability at 500 µM (HeLa cells; read-out: HeLa Cells Alamar Blue (% survival), compound 0.5 mM, percentage of controls): 95.1 ± 15.5%; viability at 500 µM (HeLa cells; read-out: HeLa Cells Alamar Blue, Supplementary Table 1, compound 0.5 mM, percentage of controls, mean ± SD (n=3) or SE (n=2)): 95.1 ± 15.5%; ΔTm at 1000 µM (TbINO1; read-out: TbIno1 Tm shift [°C]): 2.03 ± 0.08 °C
CN1CCN(C)C1=O [compound 35, 1,3‐dimethylimidazolidin‐2‐one]		101 ± 6.6	92.7	ΔTm at 1000 µM (TbINO1; Supplementary Table 1, compound 1mM, mean ± SD from Boltzman curve fitting, read-out: Tb Ino1 Tm Shift [˚C]): 0.04 ± 0.07 °C
N#Cc1c(N)cccc1Cl [compound 210, 2‐amino‐6‐chlorobenzonitrile]	0.15 ± 0.08	91.5 ± 10.8	89.2	
O=C1COc2cc(O)ccc21 [compound 182, 6‐hydroxy‐2,3‐dihydrobenzo[b]furan‐3‐one]				HeLa Cells Alamar Blue (HeLa cells; [3]): 119.6 ± 2.4 percentage of controls; Tb Ino1 Tm Shift [˚C] (TbINO1; [4]): 0.92 ± 0.09 °C; A549 Cells Alamar Blue (A549 cells): 65.6 percentage of controls
COC(=O)c1ccc(F)cc1Cl [compound 531, methyl 2‐chloro‐4‐fluorobenzoate]	0.25 ± 0.07	84 ± 11.8	75.7	
CC(C)(C)OC(=O)Nc1cccs1 [compound 620, tert-butyl N-(2-thienyl)carbamate]		71.3 ± 13.6	109	viability at 500 µM (HeLa cells; read-out: HeLa Cells Alamar Blue (% survival)): 71.3 ± 13.6%; ΔTm at 1000 µM (TbINO1; read-out: TbIno1 Tm shift [°C]): 2.08 ± 0.1 °C
Cc1nc(-c2ccc(N)cc2)cs1 [compound 547, 4‐(2‐methyl‐1,3‐thiazol‐4‐yl)phenylamine]	0.12 ± 0.07	74.3 ± 11	63.2	
CCOC(=O)c1c(N)sc(C)c1C [compound 617, ethyl 2‐amino‐4,5‐dimethylthiophene‐3‐carboxylate]				HeLa Cells Alamar Blue (HeLa cells; [3]): 69.1 ± 9.3 percentage of controls; Tb Ino1 Tm Shift [˚C] (TbINO1; [4]): 1.47 ± 0.07 °C; A549 Cells Alamar Blue (A549 cells): 75.2 percentage of controls
Cc1nnc(N)s1 [compound 39, 5‐methyl‐1,3,4‐thiadiazol‐2‐amine]	0.31 ± 0.08	105 ± 14.5	72.3	
CN1N=C(C(F)(F)F)CC1=O [compound 315, 1‐methyl‐3‐(trifluoromethyl)‐4,5‐dihydro‐1H‐pyrazol‐5‐one]				HeLa Cells Alamar Blue (HeLa cells; [3]): 109.2 ± 4.4 percentage of controls; Tb Ino1 Tm Shift [˚C] (TbINO1; [4]): 0.09 ± 0.08 °C; A549 Cells Alamar Blue (A549 cells): 88.3 percentage of controls
Cl.NCc1ccc2c(c1)CCO2 [compound 496, 2,3‐dihydrobenzo[b]furan‐5‐ylmethylamine hydrochloride]				HeLa Cells Alamar Blue (HeLa cells; [3]): 99.8 ± 15.5 percentage of controls; Tb Ino1 Tm Shift [˚C] (TbINO1; [4]): 0.06 ± 0.08 °C; A549 Cells Alamar Blue (A549 cells): 96.7 percentage of controls

Continued, in another order:

ΔTm at 1000 µM (TbINO1; [2]) [°C]	SMILES	viability at 500 µM (HeLa cells; [1]) [%]	viability at 500 µM (A549 cells) [%]	further results
0	CC1(C)C=Cc2cc(C#N)ccc2O1 [compound 487, 2,2‐dimethyl‐2H‐chromene‐6‐carbonitrile]	112 ± 14.6	108	
0.48 ± 0.05	NCc1ccc(-c2ccco2)cc1 [compound 373, [4‐(2‐furyl)phenyl]methylamine]	82.5 ± 14.3	63.4	
0.15 ± 0.05	Nc1cccc(-n2cccc2)c1 [compound 251, 3‐(1H‐pyrrol‐1‐yl)aniline]	80.5 ± 3.4	79.8	
0.1 ± 0.07	COC(=O)c1ccc(C)c(Cl)c1 [compound 484, methyl 3‐chloro‐4‐methylbenzoate]	112 ± 12	120	
0.12 ± 0.06	Cn1nccc1N [compound 7, 1‐methyl‐1H‐pyrazol‐5‐ylamine]	106 ± 6.2	124	
1.23 ± 0.07	O=C(O)c1cccc(N2CCCCC2)c1 [compound 663, 3‐piperidinobenzoic acid]	97.9 ± 1.5	104	
0.13 ± 0.08	Cc1nc(CO)c(C)o1 [compound 78, (2,5‐dimethyl‐1,3‐oxazol‐4‐yl)methanol]	92.7 ± 11.5	110	
0.14 ± 0.09	COC(=O)c1cccc(C)c1 [compound 185, methyl 3‐methylbenzoate]	106 ± 10.4	61.3	
0.42 ± 0.06	NC(=S)c1ccccc1 [compound 123, benzene‐1‐carbothioamide]	89 ± 10.9	87.9	
0.03 ± 0.07	CC(=O)N1CCC(C#N)CC1 [compound 207, 1‐acetylpiperidine‐4‐carbonitrile]	90 ± 2.9	65.3	
